Assay results taken from ChEMBL document CHEMBL5500394, “Structure-Activity Studies of 1,2,4-Oxadiazoles for the Inhibition of the NAD+-Dependent Lysine Deacylase Sirtuin 2” (J Med Chem, 2024).
Active and inactive are the calls of the source. No cut-off for these calls is given here.

Key:
[1] = biological target: T1, NAD-dependent protein deacetylase sirtuin-2 (Homo sapiens, UniProt Q8IXJ6); assay: Inhibition of human Sirt2 (56 to 356 residues) deacetylation expressed in Escherichia coli BL21 (DE3) using ZMAL as substrate incubated for 4 hrs in presence of NAD+ by fluorescence based microplate reader assay
T1 sequence (Q8IXJ6 whole entry): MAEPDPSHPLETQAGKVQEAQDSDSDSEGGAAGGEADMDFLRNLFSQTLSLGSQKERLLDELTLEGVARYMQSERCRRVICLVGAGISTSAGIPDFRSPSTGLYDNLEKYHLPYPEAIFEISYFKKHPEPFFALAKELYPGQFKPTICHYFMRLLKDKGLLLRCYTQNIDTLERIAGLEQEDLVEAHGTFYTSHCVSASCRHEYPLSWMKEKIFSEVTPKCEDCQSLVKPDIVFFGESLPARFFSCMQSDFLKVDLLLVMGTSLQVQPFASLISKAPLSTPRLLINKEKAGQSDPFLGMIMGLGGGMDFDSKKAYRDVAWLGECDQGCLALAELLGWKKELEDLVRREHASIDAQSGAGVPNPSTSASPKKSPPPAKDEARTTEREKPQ

[2] = biological target: T1, NAD-dependent protein deacetylase sirtuin-2; assay: Inhibition of human Sirt2 (56 to 356 residues) demyristoylation expressed in Escherichia coli BL21 (DE3) using ZMML as substrate incubated for 4 hrs in presence of NAD+ by fluorescence based microplate reader assay
[3] = biological target: T2, NAD-dependent protein deacetylase sirtuin-2 (Homo sapiens) (UniProt Q8IXJ6); assay: Induction of human Sirt2 stabilization (56 to 356 residues) expressed in Escherichia coli BL21 (DE3) assessed as change in melting temperature at 25 uM in presence of NAD+ by differential scanning fluorimetry analysis
T2 sequence (whole entry): T1 sequence (Q8IXJ6 whole entry)

[4] = test system: HeLa; assay: Cytotoxicity against human HeLa cells at 1 to 25 uM incubated for 72 hrs by MTS assay; type: functional, cell-based; conditions: dose 1-25 µM
[5] = biological target: T2, NAD-dependent protein deacetylase sirtuin-2 (Homo sapiens); conditions: PC-3M-luc, dose 20.0 µM, time 6.0 hrs
[6] = test system: PC-3M-luc; conditions: Homo sapiens, dose 10-20 µM, time 3.0 day
[7] = biological target: T1, NAD-dependent protein deacetylase sirtuin-2; assay: Inhibition of recombinant human C-terminal His-tagged Sirt2 (50 to 356 residues) expressed in Escherichia coli using QPKKac as substrate
[8] = biological target: T1, NAD-dependent protein deacetylase sirtuin-2; assay: Inhibition of recombinant human C-terminal His-tagged Sirt2 (50 to 356 residues) expressed in Escherichia coli using r ETDKmyr as substrate
[9] = Inhibition of schistosoma mansoni Sirt2 (21 to 322 residues) deacetylation expressed in Escherichia coli BL21 (DE3) using ZMAL as substrate incubated for 1 hr in presence of NAD+ by fluorescence based microplate reader assay

Row | IC50 [1] [µM] | IC50 [2] [µM] | Structure (SMILES) | also measured
1 | 17.8 | 22.2 | Cc1c(F)cccc1CN1CCCC(Cc2nc(-c3ccc(N)cc3)no2)C1 (stereo unspecified) | Activity [3]: inactive; Activity [4]: inactive; inhibition [5]: inactive; inhibition [6]: inactive
2 | 1.1 | 27.7 | COc1ccc(CC(=O)Nc2ccc(-c3noc(CC4CCCN(Cc5cccc(F)c5C)C4)n3)cc2)cc1 (stereo unspecified) | –
3 | 0.43 | 12.6 | COc1ccc(C(=O)Nc2ccc(-c3noc(CC4CCCN(Cc5cccc(F)c5C)C4)n3)cc2)cc1 (stereo unspecified) | –
4 | 0.21 | 20.1 | Cc1c(F)cccc1CN1CCCC(Cc2nc(-c3ccc(NC(=O)Nc4ccccc4)cc3)no2)C1 (stereo unspecified) | –
5 | – | – | CCCCCCCCCCCCNC(=S)NCCCC[C@H](NS(C)(=O)=O)C(=O)N[C@@H](C)C(=O)N[C@@H](CCCNC(=N)N)C(N)=O | IC50 [7]: 0.04 µM; IC50 [8]: 0.17 µM
6 | 0.88 | 22.3 | COc1cccc(C(=O)Nc2ccc(-c3noc(CC4CCCN(Cc5cccc(F)c5C)C4)n3)cc2)c1 (stereo unspecified) | –
7 | 0.67 | – | Cc1c(F)cccc1CN1CCCC(Cc2nc(-c3ccc(NC(=O)c4ccc(Cl)s4)cc3)no2)C1 (stereo unspecified) | –
8 | – | 11 | CC(=O)Nc1ccc(-c2noc(CC3CCCN(Cc4cccc(F)c4C)C3)n2)cc1 (stereo unspecified) | IC50 [9]: 14 µM
9 | 0.64 | 6.65 | Cc1c(F)cccc1CN1CCCC(Cc2nc(-c3ccc(NC(=S)NCc4ccccc4)cc3)no2)C1 (stereo unspecified) | inhibition [5]: Active
10 | 0.62 | 25 | COc1ccc(NC(=O)Nc2ccc(-c3noc(CC4CCCN(Cc5cccc(F)c5C)C4)n3)cc2)cc1 (stereo unspecified) | –
11 | 1.07 | 10.2 | Cc1c(F)cccc1CN1CCCC(Cc2nc(-c3ccc(NC(=O)NCc4ccccc4)cc3)no2)C1 (stereo unspecified) | –
12 | 0.9 | 6.2 | Cc1c(F)cccc1CN1CCCC(Cc2nc(-c3ccc(NC(=S)Nc4ccccc4)cc3)no2)C1 (stereo unspecified) | –

Row | Structure (SMILES) | IC50 [1] [µM] | IC50 [2] [µM] | also measured
13 | Cc1cc(C)nc(SCC(=O)Nc2ncc(Cc3cccc(OCc4cn(Cc5ccc(OCCN6CCOCC6)cc5)nn4)c3)s2)n1 | – | 2.4 | inhibition [5]: Active; inhibition [6]: Active
